Type in all cases: in vivo, BALB/c nude mice
In series [1] the test system is A375 human melanoma xenografts. The series is described as follows: Example 8 efficacy study in A375 human melanoma xenografts (tumor volume, T/C, TGI). The conditions noted are these: 10 mg/kg, p.o. As for the experimental part: (§1) For efficacy study, agents were tested in the A375 human melanoma xenografts model. Compound 8, Compound 26, and Compound 38 were administered to BALB/c nude mice bearing A375 xenografts from day 0 and dosed p.o. twice per day (BID). Compound 8 and Compound 26 were dosed at 10 mg/kg for 21 days. Compound 38 was dosed at 10 mg/kg for 10 days. The known BRAF inhibitor encorafenib was used as a positive control. encorafenib was administered from day 1 and dosed p.o. daily (QD) for 21 days and dosed at 35 mg/kg.
The A375 tumor cells were maintained in vitro in DMEM medium supplemented with […] and 1% Penicillin-Streptomycin at 37° C. in an atmosphere of 5% CO2 in air. The tumor cells were routinely subcultured twice weekly. The cells growing in an exponential growth phase were harvested and counted for tumor inoculation.
Each mouse was inoculated subcutaneously at the right flank with A375 cells (5×10^6) in 0.2 mL of PBS supplemented with Matrigel (PBS:Matrigel=1:1) for tumor development. Animals were grouped for treatment 16 days after tumor inoculation when the average tumor volume reached 234 mm^3 for efficacy study and 382 mm^3 for PKPD study. The test articles administration and the animal numbers in each group are shown in the above experimental tables.
(§2) Prior to the onset of drug treatment, mice were measured for tumor size in two dimensions using a caliper, and the tumor volume (mm^3) was calculated using formula V=0.5 a×b^2 where a and b are the long and short diameters of the tumor in mm, respectively. Mice were randomized into different treatment groups based on the tumor volume.
(§3) The major endpoint was to see if the tumor growth could be delayed or mice could be cured. The tumor size was then used for calculations of T/C value. The T/C value (in percent) is an indication of antitumor effectiveness; T and C are the mean volumes of the treated and control groups, respectively on specified day.
(§4) TGI was calculated for each group using the formula: TGI (%)=[1−(Ti−T0)/(Ci−C0)]×100; Ti is the average tumor volume of a treatment group on a given day, T0 is the average tumor volume of the treatment group on the day of treatment start, Ci is the average tumor volume of the vehicle control group on the same day with Ti, and C0 is the average tumor volume of the vehicle group on the day of treatment start.
(In general: In xenograft studies the graft and the host belong to different species.)

Series [2] in a line: Example 8 pharmacokinetics assay for efficacy study (plasma, liver). The note with it: mouse, po, 10 mg/kg, p.o. As for the experimental part:
as §1
The plasma samples were collected at predetermined time points for PK analysis. For non-termination plasma collection, blood samples were collected into the 1.5 mL Eppendorf tubes containing 3 μL of 0.5 M EDTA-K2. For termination plasma collection, the mice were euthanized at predetermined time points post the treatment and the blood samples were collected into the 1.5 mL Eppendorf tubes containing 15 μL of 0.5 M EDTA-K2. And then the anticoagulant blood samples were centrifuged at 2,500 g at 4° C. for 15 minutes. The plasma samples were separated into 2 aliquots. The 1st was used for PK analysis, and the 2nd served as backup. The samples were stored at −80° C. before bioanalysis.
Liver samples were collected at predetermined time points for PK analysis. The left lobe of the liver was dissected out and split into 2 parts. The 1st part was used for PK analysis and the 2nd part served as the backup for the study. The samples were transferred into pre-labeled tubes and quickly froze in liquid nitrogen within 2 minutes after dissection. The samples were stored at −80° C. before bioanalysis.
The harvested plasma and liver samples were processed for pharmacokinetics analysis by LC-MS/MS with a concentration range of 2.0~2000 ng/mL for encorafenib in plasma and liver homogenate, 10.0-10,000 ng/mL for Compound 8 and Compound 38 in plasma and liver homogenate, 20.0~20,000 ng/mL for Compound 26 in plasma and liver homogenate.

For series [3], the system named is A375 human melanoma xenografts. The series is described as follows: Example 7 efficacy study in A375 human melanoma xenografts (tumor volume, T/C, TGI). The note with it: 10 mg/kg, p.o., BID × 14 days. On the procedure:
For efficacy study, agents were tested in the A375 human melanoma xenografts. Compound 118, Compound 156, and Compound 180 were administered to BALB/c nude mice bearing A375 xenografts from day 0 and dosed p.o. twice per day (BID). Compound 141 was administered from day 0 and dosed p.o. twice per day (BID) or dosed p.o. daily (QD) from day 1. Compound 141, Compound 118, Compound 156, and Compound 180 were dosed at 10 mg/kg for 14 days. The known BRAF inhibitor Dabrafenib was used as a positive control. Dabrafenib was administered from day 1 and dosed p.o. daily (QD) for 14 days and dosed at 100 mg/kg.
The A375 tumor cells were maintained in vitro in DMEM medium supplemented with […] and 1% Penicillin-Streptomycin at 37° C. in an atmosphere of 5% CO2 in air. The tumor cells were routinely subcultured twice weekly. The cells growing in an exponential growth phase were harvested and counted for tumor inoculation.
Each mouse was inoculated subcutaneously at the right flank with A375 tumor cells (5×10^6) in 0.2 mL of PBS with Matrigel (PBS: Matrigel=1:1) supplemented for tumor development. Animals were grouped when the average tumor volume reached 246 mm^3 for efficacy study and 390 mm^3 for PKPD study on day 17 after tumor inoculation. The test articles administration and the animal numbers in each group are shown in the above experimental tables.
as §2, §3, §4

The mark [4] stands for this setting: liver, BID × 21 days, read-out: Concentration in Liver (mean ± SEM).
[5] abbreviates: plasma, BID × 21 days, read-out: Concentration in Plasma (mean ± SEM).

The record followed here is patent publication US20260297060A1, “COMPOUNDS FOR THE DEGRADATION OF MUTANT BRAF” (C4 THERAPEUTICS, INC., priority 2023, published 2026).

Read-outs that look alike come from different tables or passages of the source.

The term T/C denotes the result in the treated group divided by that in the control group, in per cent. The compound `CCN(C)S(=O)(=O)Nc1ccc(F)c(Oc2ccc3ncn(C4CC5(CCN(C6CCC(c7cc8c(cc7F)c(N7CCC(=O)NC7=O)nn8C)CC6)CC5)C4)c(=O)c3c2)c1C#N` (single isomer, unassigned) [Compound 8, 6-[2-cyano-3-[[ethyl(methyl)sulfamoyl]amino]-6-fluoro-phenoxy]-3-[7-[4-[3-(2,4-dioxohexahydropyrimidin-1-yl)-5-fluoro-1-methyl-indazol-6-yl]cyclohexyl]-7-azaspiro[3.5]nonan-2-yl]-4-oxo-quinazoline] displayed a T/C in series [1] (BID × 21 days, PG-D21) of 1.29%. The TGI in series [1] (BID × 21 days, PG-D21) is 114.48%. Besides, in series [1] (BID × 21 days, PG-D21), the “Tumor Size on PG-D21 (Mean ± SEM)” value came to 22 ± 3 mm^3. For the same compound, the “Tumor Volume (mean ± SEM)” value in series [1] (BID × 21 days, day 0) was 234 ± 7 mm^3; in series [1] (BID × 21 days, day 3), 185 ± 6 mm^3; in series [1] (BID × 21 days, day 6), 105 ± 9 mm^3; in series [1] (BID × 21 days, day 9), 57 ± 4 mm^3; in series [1] (BID × 21 days, day 13) it was 32 ± 4 mm^3; in series [1] (BID × 21 days, day 17), 28 ± 3 mm^3. Further, the “Tumor Volume (mean ± SEM)” value in series [1] (BID × 21 days, day 21) is reported as 22 ± 3 mm^3. In addition, the concentration at 6 h in series [2] (setting [4]) is 738 ± 299 ng/g; in series [2] (setting [5]), 984 ± 364 ng/mL.
On to `CCN(C)S(=O)(=O)Nc1ccc(F)c(Oc2ccc3ncn([C@H]4COC5(CCN(C6CC7(C6)CN(c6cc8c(cc6F)c(N6CCC(=O)NC6=O)nn8C)C7)CC5)C4)c(=O)c3c2)c1C#N` [Compound 26, (3R)-3-[6-[2-cyano-3-[[ethyl(methyl)sulfamoyl]amino]-6-fluoro-phenoxy]-4-oxo-quinazolin-3-yl]-8-[2-[3-(2,4-dioxohexahydropyrimidin-1-yl)-5-fluoro-1-methyl-indazol-6-yl]-2-azaspiro[3.3]heptan-6-yl]-1-oxa-8-azaspiro[4.5]decane], for which, in series [1] (BID × 21 days, PG-D21), the T/C amounted to 0.97%. Besides, the TGI in series [1] (BID × 21 days, PG-D21) turned out to be 114.89%. For the same compound, the “Tumor Size on PG-D21 (Mean ± SEM)” value in series [1] (BID × 21 days, PG-D21) is on record as 16 ± 2 mm^3. For the same compound, the “Tumor Volume (mean ± SEM)” value is listed as 234 ± 7 mm^3 in series [1] (BID × 21 days, day 0); 148 ± 10 mm^3 in series [1] (BID × 21 days, day 3); 57 ± 4 mm^3 in series [1] (BID × 21 days, day 6); 33 ± 3 mm^3 in series [1] (BID × 21 days, day 9); 21 ± 2 mm^3 in series [1] (BID × 21 days, day 13); 18 ± 1 mm^3 in series [1] (BID × 21 days, day 17). Further, the “Tumor Volume (mean ± SEM)” value in series [1] (BID × 21 days, day 21) is 16 ± 2 mm^3. Also, the values for the concentration at 6 h in series [2] (setting [4]) and in series [2] (setting [5]) were 4720 ± 367 ng/g and 16000 ± 2060 ng/mL, respectively.
As for `CCN(C)S(=O)(=O)Nc1ccc(F)c(Oc2ccc3ncn([C@H]4COC5(CCC(N6CCC(c7cc8c(cc7F)c(N7CCC(=O)NC7=O)nn8C)C(F)(F)C6)CC5)C4)c(=O)c3c2)c1C#N` (single isomer, unassigned) [Compound 38], in series [1] (BID × 10 days, PG-D9), the T/C was 4.30%. Besides, the TGI in series [1] (BID × 10 days, PG-D9) was 134.38%. In series [1] (BID × 10 days, PG-D9), the “Tumor Size on PG-D9 (mean ± SEM)” value is on record as 35 ± 3 mm^3. The “Tumor Volume (mean ± SEM)” value in series [1] (BID × 10 days, day 0) was 234 ± 7 mm^3; in series [1] (BID × 10 days, day 3), 134 ± 7 mm^3; in series [1] (BID × 10 days, day 6), 67 ± 7 mm^3; in series [1] (BID × 10 days, day 9), 35 ± 3^b mm^3. The concentration at 6 h in series [2] (liver, BID × 10 days, read-out: Concentration in Liver (mean ± SEM)) amounted to 17200 ± 2570 ng/g; in series [2] (plasma, BID × 10 days, read-out: Concentration in Plasma (mean ± SEM)), 18300 ± 2240 ng/mL.
Compound `CCN(C)S(=O)(=O)Nc1ccc(F)c(Oc2ccc3ncc(C4CC5(CCN(C6CCC(c7cc8c(cc7F)c(N7CCC(=O)NC7=O)nn8C)CC6)CC5)C4)nc3c2)c1C#N` (single isomer, unassigned) [Compound 180, 7-[2-cyano-3-[[ethyl(methyl)sulfamoyl]amino]-6-fluoro-phenoxy]-2-[7-[4-[3-(2,4-dioxohexahydropyrimidin-1-yl)-5-fluoro-1-methyl-indazol-6-yl]cyclohexyl]-7-azaspiro[3.5]nonan-2-yl]quinoxaline] yielded a T/C in series [3] (PG-D14) of 7.2%. The TGI in series [3] (PG-D14) amounted to 113.9%. In addition, in series [3] (PG-D14), the “Tumor Size on PG-D14 (mean ± SEM)” value stood at 96 ± 11 mm^3. Also, the “Tumor Volume (mean ± SEM)” value was 247 ± 16 mm^3 in series [3] (day 0); 319 ± 22 mm^3 in series [3] (day 3); 222 ± 18 mm^3 in series [3] (day 7); 151 ± 16 mm^3 in series [3] (day 10); 96 ± 11 mm^3 in series [3] (day 14).
